Results taken from the METLIN SMRT retention time set (Domingo-Almenara et al. 2019).

Assay: gradient 5% acetonitrile 3 min, to 50% in 2 min, to 85% in 15 min, held 3 min, 100 µL/min
Settings: column: Zorbax Extend-C18 2.1 x 50 mm; eluents: water / acetonitrile, 0.1% formic acid
Procedure, shortened: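 Retention time was recorded from adduct peaks, which were picked computationally and each inspected manually. Pure standards ran in mixtures of ~100 molecules on HPLC coupled to a quadrupole time-of-flight mass spectrometer, in positive and negative ionization mode, through a Zorbax Extend-C18 column (2.1 × 50 mm, 1.8 μm) at 100 μL/min. Eluents were water and acetonitrile, each with 0.1% formic acid.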

| Compound | RP-LC retention time [s] |
| --- | --- |
| Cc1cc(C)cc(NC(=O)C(=O)NCC(c2ccc3c(c2)OCO3)N2CCOCC2)c1 (configuration not stated) | 613 |
| COCC(=O)Nc1nc(-c2ccc3c(c2)NC(=O)C(C)O3)c(C)s1 (configuration not stated) | 720 |
| Cc1cccc(N2CC(C(=O)NC3CCCC3)CC2=O)c1 (configuration not stated) | 767 |
| Nc1cc(C2CCN(C(=O)c3cccc(Br)c3)CC2)no1 | 709 |
| Cc1cccc(-c2noc(C3CC(=O)N(c4ccc5c(c4)OCCO5)C3)n2)c1 (configuration not stated) | 980 |
| Cc1nc(-c2csc(S(=O)(=O)N3CCC(C(=O)NCc4cccnc4)CC3)c2)no1 | 618 |
| CCc1nccn1Cc1nc(-c2ccc(Br)cc2)no1 | 677 |
| Cc1cc(OCC(=O)Nc2ccc(F)cc2Cl)nc(N2CCN(c3ccccc3)CC2)n1 | 976 |
| Cn1c(=O)c2c(ncn2CC(=O)N2CCC(CCOc3ccc(F)cc3)C2)n(C)c1=O (configuration not stated) | 748 |
| CCCn1cnc2cc(-c3noc(C(NC(=O)c4ccco4)C(C)C)n3)ccc21 (configuration not stated) | 708 |
| CC1(C)C(=O)N(CCN2CCC(C(=O)c3ccc(F)cc3)CC2)c2ccccc21 | 755 |
| Cn1c(=O)c(-c2ccc(C(=O)NC3CCCCC3)cc2)nc2cccnc21 | 882 |
| Cc1ccc(S(=O)(=O)NCC2CN(C(C)C)CC23CCCCC3)c(C)c1 (configuration not stated) | 738 |
| CN(Cc1cnc2nc(N)nc(N)c2n1)c1ccc(C(=O)NC(CCC(=O)O)C(=O)O)cc1 (configuration not stated) | 666 |
| CCOc1ccccc1NC(=O)CN1C(=O)C2CCCCN2c2ccc(S(=O)(=O)N(C)C)cc21 (configuration not stated) | 887 |
| O=C(NC1CCN(c2cc(-c3cccs3)[nH]n2)C1)c1cccc(OC(F)(F)F)c1 (configuration not stated) | 828 |
| Cc1ncc2c(n1)C[C@@H]1CC[C@H]2N1C(=O)Nc1ccccc1 | 636 |
| COc1cccc(CNC(=O)C2(C)CCCN(C(=O)Nc3ccc(C)c(Cl)c3)C2)c1 (configuration not stated) | 982 |
| Cc1nc([C@@H]2CN(C(=O)CCc3c(C)noc3C)C[C@H]2C(N)=O)n[nH]1 | 569 |
| O=C(Nc1ccccc1C(F)(F)F)N1CCC(N2CCN(Cc3ccc(F)cc3)C(=O)C2=O)CC1 | 752 |
| COc1ccc(CN2CCc3nc(N4CCN(c5ccccc5OC)CC4)ncc3C2)cc1 | 762 |
| O=C(NCc1ccccc1F)c1c(O)c2cccnc2n(Cc2ccccc2)c1=O | 1360 |
| O=C(Nc1cccc(Br)c1)C1CC(=O)N(c2n[nH]c3cccc(F)c23)C1 (configuration not stated) | 824 |

| Compound | RP-LC retention time [s] |
| --- | --- |
| CCn1c(=O)c(=O)n(CC(=O)NCCN2CCCCC2)c2cccnc21 | 565 |
| CCC(CC)N1CCC(F)(c2nc(-c3ccccc3)no2)CC1 | 704 |
| O=C(Cc1ccsc1)NCC1CCCCC(=O)N1 (configuration not stated) | 619 |
| COCCn1c(CCCC(=O)NCc2ccc3c(c2)OCO3)nc2cccnc21 | 632 |
| CC[C@@H](c1cccc(O)c1)[C@@H](C)CN(C)C | 633 |
| O=C(Cc1noc2ccccc12)NCC1CCS(=O)(=O)C1 (configuration not stated) | 606 |
| O=S(=O)(Cc1ccccc1)N1CCC(c2noc(-c3cccnc3)n2)C1 (configuration not stated) | 822 |
| NC(=O)C1CCN(C(=O)C2CCN(S(=O)(=O)Cc3ccc(F)cc3)CC2)CC1 | 644 |
| Cc1ccc(NC(=O)N(C)CC2CCOC2)cc1 (configuration not stated) | 667 |
| Cc1ccc(Nc2ccc(N)cc2S(=O)(=O)O)cc1 | 652 |
| Cc1ccc(NC(=O)CN2C(=O)CCc3cc(S(=O)(=O)N4CCCCC4C)ccc32)cc1N(C)C (configuration not stated) | 676 |
| O=C(c1cc(-c2cccnc2)n[nH]1)N1CCN(C(=O)C2CCC2)CC1 | 581 |
| Cc1ccc(N2CC(c3noc(-c4ccc(F)cc4)n3)CC2=O)cc1 (configuration not stated) | 1010 |
| CCNC(=O)N1CCCC(c2cccc(C(=O)NCc3ccc(C)o3)c2)C1 (configuration not stated) | 774 |
| CCOc1ccc(-c2noc(Cc3nc(-c4ccc(F)cc4)cs3)n2)cc1 | 1290 |
| CCOc1ccc(-n2nc(CO)c(C(=O)NC3CC3)n2)cc1 | 814 |
| CC1(C(=O)NCc2ccc(F)cc2)CCCN(C(=O)Nc2ccccc2Cl)C1 (configuration not stated) | 941 |
| CCn1nc(C)c2c(-c3ccccc3)cc(OC(C)C(=O)Nc3ccc(C(C)=O)cc3)nc21 (configuration not stated) | 1030 |
| C=CCn1nc(-c2nc(-c3cccc(Cl)c3)no2)ccc1=O | 1060 |
| Cc1cc(=O)n(CC(=O)Nc2ccccc2F)c(N2CCCCC2)n1 | 649 |
| COc1ccc(Cl)cc1S(=O)(=O)N1CCC(C(=O)NCCC2=CCCCC2)CC1 | 994 |
| COc1ccc(C(=O)NCc2ccc3c(c2)OCO3)nn1 | 654 |
| Cc1ccc(C)c(NC(=O)C2CCCN(S(=O)(=O)c3c[nH]c(C(=O)N4CCCC4)c3)C2)c1 (configuration not stated) | 821 |

| Compound | RP-LC retention time [s] |
| --- | --- |
| COCCCNC(=O)C(C)n1c(=O)c(C(F)(F)F)nc2cc(C)c(C)cc21 (configuration not stated) | 1010 |
| CCc1cc(C(=O)Nc2cccc(OC)c2)nc2ccnn12 | 985 |
| O=C(Nc1ccccc1C(F)(F)F)C1CN(C(=O)c2ccc(F)c(F)c2)C1 | 748 |
| CCOC(=O)Cn1c(C2CC(=O)N(c3ccccc3Cl)C2)nc2ccccc21 (configuration not stated) | 761 |
| COCCNS(=O)(=O)c1ccc(Cl)c(-c2nnc(-c3ccccc3)o2)c1 | 870 |
| Cc1ccc(S(=O)(=O)N2CCCCC2)cc1-c1nnc(-c2ccccc2)o1 | 1130 |
| CCCn1c(=O)c2sc(N3CCCC3)nc2n(CC(=O)Nc2cc(F)cc(F)c2)c1=O | 902 |
| CCCCN(CC(=O)N1CCNCC1)C(=O)c1ccc(Br)cc1 | 589 |
| CCC(C)(C)C(=O)NC1CCN(C2=NS(=O)(=O)C(c3ccc(C)c(C)c3)=C2C)CC1 | 950 |
| CCc1ccccc1NC(=O)Cn1c(=O)cc(-c2nc(C3CC3)no2)c2ccccc21 | 990 |
| Cc1ccn2cc(-c3ccc(NC(=O)CCC4CCCCC4)cc3)nc2n1 | 761 |
| CCSc1nnc(-c2nn(C)c3c2CN(S(=O)(=O)c2ccc(OC)c(Cl)c2)CC3)n1CC | 968 |
| Cc1nnc(-c2ccc(S(=O)(=O)N3CCCC(C)C3)o2)o1 (configuration not stated) | 836 |
| O=C(NC1CCCC1)C1CC(=O)N(c2ccc3c(c2)CCN3C(=O)C2CC2)C1 (configuration not stated) | 704 |
| O=S(=O)(c1ccc(Cl)cc1)c1nc(-c2ccco2)oc1NCCCn1ccnc1 | 597 |
| Cc1nnsc1C(=O)N1CCc2nc(NC(=O)c3ccco3)sc2C1 | 636 |
| CCN(CC)c1cc(C)nc2nc(CN3CCN(c4ccc(OC)cc4)CC3)nn12 | 571 |
| CCOC(=O)c1ccc(OC(=O)c2cn(CC)c(=O)c3ccccc23)cc1 | 1110 |
| O=C(C1=NN(Cc2ccccc2Cl)c2ccccc2S1(=O)=O)N1CCOCC1 | 873 |
| CN(C)[C@@H]1CN(C(=O)c2cc(Cl)ccc2F)C[C@H]1CO | 571 |
| O=C(c1ccoc1)N1CCC(F)(C(=O)NC2CC2)CC1 | 569 |
